Reference: PMC6996489 (Drug Design, Development and Therapy, 2020)

What was measured:
[1] = molecular target: T1, human recombinant monoamine oxidase B (MAO B) (Homo sapiens, UniProt P27338); type: biochemical; details: MAO B vs MAO A
T1 sequence (P27338 1-520): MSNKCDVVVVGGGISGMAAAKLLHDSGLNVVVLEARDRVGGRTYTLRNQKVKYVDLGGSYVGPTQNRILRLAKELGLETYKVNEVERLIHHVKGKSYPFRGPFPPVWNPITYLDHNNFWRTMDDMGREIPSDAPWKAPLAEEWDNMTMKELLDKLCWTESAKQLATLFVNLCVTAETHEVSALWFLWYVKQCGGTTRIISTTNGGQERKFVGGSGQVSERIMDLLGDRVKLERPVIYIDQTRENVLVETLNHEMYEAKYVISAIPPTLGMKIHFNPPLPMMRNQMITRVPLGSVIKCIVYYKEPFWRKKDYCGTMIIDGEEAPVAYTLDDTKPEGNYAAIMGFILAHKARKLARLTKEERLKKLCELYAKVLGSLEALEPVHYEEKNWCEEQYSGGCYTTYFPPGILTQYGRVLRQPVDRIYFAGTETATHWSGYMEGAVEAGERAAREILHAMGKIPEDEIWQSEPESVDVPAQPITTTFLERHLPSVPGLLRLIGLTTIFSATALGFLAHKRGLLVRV

AChE = AChE (Homo sapiens, UniProt P22303); test: Acetylcholine esterase inhibition screening; type: biochemical; details: concentration of 1 µm
AChE, sequence (P22303 32-614): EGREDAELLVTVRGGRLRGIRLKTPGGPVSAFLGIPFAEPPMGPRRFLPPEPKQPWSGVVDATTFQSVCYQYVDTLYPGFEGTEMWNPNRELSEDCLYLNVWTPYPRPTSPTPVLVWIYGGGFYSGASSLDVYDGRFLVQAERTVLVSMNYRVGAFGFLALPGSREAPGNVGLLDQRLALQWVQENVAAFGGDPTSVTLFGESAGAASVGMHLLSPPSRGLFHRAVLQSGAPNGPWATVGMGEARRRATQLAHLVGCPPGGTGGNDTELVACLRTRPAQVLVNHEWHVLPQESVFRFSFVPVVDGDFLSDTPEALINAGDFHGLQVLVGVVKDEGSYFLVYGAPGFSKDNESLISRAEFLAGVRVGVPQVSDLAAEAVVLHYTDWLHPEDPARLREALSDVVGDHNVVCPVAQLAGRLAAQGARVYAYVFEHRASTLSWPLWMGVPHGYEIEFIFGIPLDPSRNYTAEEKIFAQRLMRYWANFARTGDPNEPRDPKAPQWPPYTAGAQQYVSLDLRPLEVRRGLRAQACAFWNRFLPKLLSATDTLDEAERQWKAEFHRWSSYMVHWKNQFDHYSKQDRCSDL

MAO B = molecular target: T2, MAO B (Homo sapiens, UniProt P27338); details: seven kynuramine concentrations, Lineweaver–Burk plots
T2 sequence (P27338 1-520): T1 sequence (P27338 1-520)

BuChE = BuChE (Homo sapiens, UniProt P06276); test: Butyrylcholine esterase inhibition screening; type: biochemical; details: concentration of 1 µm
BuChE, sequence (P06276 29-602): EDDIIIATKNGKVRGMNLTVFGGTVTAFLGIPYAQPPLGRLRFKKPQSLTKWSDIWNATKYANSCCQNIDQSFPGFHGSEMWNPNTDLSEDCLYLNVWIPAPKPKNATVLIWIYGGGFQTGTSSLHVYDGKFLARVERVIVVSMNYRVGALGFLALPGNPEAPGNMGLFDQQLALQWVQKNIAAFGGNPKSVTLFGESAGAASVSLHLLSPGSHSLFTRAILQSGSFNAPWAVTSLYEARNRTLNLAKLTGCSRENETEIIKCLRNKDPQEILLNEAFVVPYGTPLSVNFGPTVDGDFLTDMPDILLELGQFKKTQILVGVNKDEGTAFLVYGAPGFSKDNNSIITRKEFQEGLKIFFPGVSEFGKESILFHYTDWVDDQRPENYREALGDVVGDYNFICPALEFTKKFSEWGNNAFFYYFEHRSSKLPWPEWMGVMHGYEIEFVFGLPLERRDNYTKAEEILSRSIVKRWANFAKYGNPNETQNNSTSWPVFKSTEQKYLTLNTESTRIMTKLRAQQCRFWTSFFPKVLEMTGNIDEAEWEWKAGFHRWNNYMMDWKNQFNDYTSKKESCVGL

| fold lower affinity towards MAO B than MAO A [1] [fold] | SMILES | inhibition of AChE at 1 µm (AChE) [%] | Type of MAO B inhibition (MAO B) | inhibition of BuChE at 1 µm (BuChE) [%] |
| --- | --- | --- | --- | --- |
| 8.3 | O=C(Nc1ccc([N+](=O)[O-])cc1[N+](=O)[O-])c1ccccc1 [Compound 7, N-(2,4-Dinitrophenyl)benzamide] |  |  |  |
|  | O=C(Nc1ccc([N+](=O)[O-])cc1[N+](=O)[O-])c1ccc2c(c1)OCO2 [Compound 55, N-(2,4-Dinitrophenyl)benzo[d][1,3]dioxole-5-carboxamide] | 24±1.8 | competitive | 57±4.5 |
